Values quoted from earlier work as cited in US20240173254A1, “TASIPIMIDINE FORMULATIONS AND USE THEREOF” (ORION CORPORATION, priority 2021, published 2024).

Key:
[1] = in vivo

## COc1cccc2c1CCOC2C1=NCCN1 (centres unmarked) [tasipimidine, 2-(5-methoxyisochroman-1-yl)-4,5-dihydro-1H-imidazole]
[1]
  elimination half-life (t1/2) compared with clonidine: shorter elimination half-life (t1/2) than clonidine
dogs
  relieving situational anxiety and fear triggered by noise or owner departure: effective
